Test results published in US20140142127A1, “Stable Compositions of HMG-COA Reductase Inhibitors and Omega-3 Oils” (Almburg, LLC, priority 2012, published 2014).

Test: Storage stability of statin Ca salt suspensions in omega-3 oils, statin and lactone quantified by HPLC
Type: physicochemical
Procedure: (§1) Atorvastatin Ca (At) in ethyl ester of EPA (97% purity from Equatec) was prepared as follows: The drug substance was weighed into a glass vessel containing a magnetic stir bar and the oil was then added by volume to make a 10 mg/ml suspension. The clear oil made an off-white suspension with the drug, which was uniformly dispersed by magnetic stirring. Each formulation also had 1% BHA via ethanol solution (1% of volume of the final suspension from a 100 mg/mL solution of BHA in anhydrous ethanol, resulting in 1 mg/mL BHA or 0.1% w/V). While stirring the suspensions were individually transferred by mass into 250 ul glass vial inserts to about 260 mg, which was essentially a complete fill. Vials were crimped with a teflon-backed seal and placed on stability stations: 25 C/60% RH, 40 C/75% RH and −20 C for reference. Samples were pulled at monthly intervals and prepared for HPLC analysis using a C18 column, samples were transferred, fully dissolved and diluted to 10.0 ml with dry DMF. At and corresponding lactone were quantified from HPLC chromatograms against standards of the At API. Integration was done using the Perkin Elmer software supplied with the HPLC system.
as §1, with “omega-3 free fatty acid” for “ethyl ester of EPA (97% purity from Equatec)”
as §1, with “Rosuvastatin” for “Atorvastatin”, “(Ro)” for “(At)”
RosuvastatinCa (Ro) in omega-3 free fatty acid was prepared as follows: The drug substance was weighed into a glass vessel containing a magnetic stir bar and the oil was then added by volume to make a 10 mg/ml suspension. The clear oil made an off-white suspension with the drug, which was uniformly dispersed by magnetic stirring. […]

[1] = Ethyl ester omega-3 oil, additive CaCO3, 25° C./60% RH, 3 months
[2] = Ethyl ester omega-3 oil, additive CaCO3, 40° C./75% RH, 1 month
[3] = Ethyl ester omega-3 oil, additive CaCO3, 40° C./75% RH, 3 months
[4] = Ethyl ester omega-3 oil, additive CaCl2, 25° C./60% RH, 3 months
[5] = Ethyl ester omega-3 oil, additive CaCl2, 40° C./75% RH, 1 month
[6] = Ethyl ester omega-3 oil, additive CaCl2, 40° C./75% RH, 3 months
[7] = Ethyl ester omega-3 oil, additive CaHPO4, 25° C./60% RH, 3 months
[8] = Ethyl ester omega-3 oil, additive CaHPO4, 40° C./75% RH, 1 month
[9] = Ethyl ester omega-3 oil, additive CaHPO4, 40° C./75% RH, 3 months
[10] = Ethyl ester omega-3 oil, additive None, 40° C./75% RH, 1 month
[11] = Free acid omega-3 oil, additive CaCO3, 25° C./60% RH, 3 months
[12] = Free acid omega-3 oil, additive CaCO3, 40° C./75% RH, 1 month
[13] = Free acid omega-3 oil, additive CaCO3, 40° C./75% RH, 3 months
[14] = Free acid omega-3 oil, additive CaCl2, 25° C./60% RH, 3 months
[15] = Free acid omega-3 oil, additive CaCl2, 40° C./75% RH, 1 month
[16] = Free acid omega-3 oil, additive CaCl2, 40° C./75% RH, 3 months
[17] = Free acid omega-3 oil, additive CaHPO4, 25° C./60% RH, 3 months
[18] = Free acid omega-3 oil, additive CaHPO4, 40° C./75% RH, 1 month
[19] = Free acid omega-3 oil, additive CaHPO4, 40° C./75% RH, 3 months
[20] = Free acid omega-3 oil, additive None, 40° C./75% RH, 1 month
[21] = Triglyceride omega-3 oil, additive None, 40° C./75% RH, 1 month

For `CC(C)c1nc(N(C)S(C)(=O)=O)nc(-c2ccc(F)cc2)c1/C=C/[C@@H](O)C[C@@H](O)CC(=O)O` [Rosuvastatin, Rosuvastatin Ca], the “Ro Lactone” value [1] was 0.31%, the Rosuvastatin [1] was 101.9% and the “Ro Lactone” value [2] was 0.79%. For the same molecule, the Rosuvastatin [2] was 79.8%, the “Ro Lactone” value [3] was 5.56% and the Rosuvastatin [3] was 86.1%. The “Ro Lactone” value [4] was 0.23%, the Rosuvastatin [4] was 110.4% and the “Ro Lactone” value [5] was 0.09%. The Rosuvastatin [5] was 93.1%, the “Ro Lactone” value [6] was 1.03% and the Rosuvastatin [6] was 108.8%. For the same molecule, the “Ro Lactone” value [7] was 0.26%, the Rosuvastatin [7] was 98.2% and the Rosuvastatin [8] was 96.2%. The “Ro Lactone” value [9] was 9.75%, the Rosuvastatin [9] was 83.7% and the “Ro Lactone” value [10] was 0.92%. For the same molecule, the Rosuvastatin [10] was 95.0%, the “Ro Lactone” value [11] was 1.0% and the Rosuvastatin [11] was 100.2%. For the same molecule, the “Ro Lactone” value [12] was 0.25%, the Rosuvastatin [12] was 105.4% and the “Ro Lactone” value [13] was 0.83%. The Rosuvastatin [13] was 92.4%, the “Ro Lactone” value [14] was 0.44% and the Rosuvastatin [14] was 101.9%. For the same molecule, the “Ro Lactone” value [15] was 0.28%, the Rosuvastatin [15] was 105.2% and the “Ro Lactone” value [16] was 0.39%. The Rosuvastatin [16] was 98.7%, the “Ro Lactone” value [17] was 0.74% and the Rosuvastatin [17] was 99.9%. For the same molecule, the “Ro Lactone” value [18] was 0.17%, the Rosuvastatin [18] was 99.5% and the “Ro Lactone” value [19] was 0.69%. The Rosuvastatin [19] was 102.2%, the “Ro Lactone” value [20] was 60.0% and the Rosuvastatin [20] was 39.1%. For the same molecule, the “Ro Lactone” value [21] was 2.5% and the Rosuvastatin [21] was 100.6%.

For `CC(C)c1c(C(=O)Nc2ccccc2)c(-c2ccccc2)c(-c2ccc(F)cc2)n1CC[C@@H](O)C[C@@H](O)CC(=O)O` [Atorvastatin, Atorvastatin Ca], the “At Lactone” value [1] was 0.26%, the Atorvastatin [1] was 110.7% and the “At Lactone” value [2] was 0.34%. For the same molecule, the Atorvastatin [2] was 97.6%, the “At Lactone” value [3] was 1.87% and the Atorvastatin [3] was 111.8%. For the same molecule, the “At Lactone” value [4] was 0.35%, the Atorvastatin [4] was 98.2% and the “At Lactone” value [5] was 0.06%. For the same molecule, the Atorvastatin [5] was 103.2%, the “At Lactone” value [6] was 0.48% and the Atorvastatin [6] was 97.1%. The “At Lactone” value [7] was 0.38%, the Atorvastatin [7] was 98.0% and the “At Lactone” value [8] was 0.21%. The Atorvastatin [8] was 100.9%, the “At Lactone” value [9] was 4.80% and the Atorvastatin [9] was 90.8%. The “At Lactone” value [10] was 0.18%, the Atorvastatin [10] was 98.0% and the “At Lactone” value [11] was 24.6%. The Atorvastatin [11] was 77.3%, the “At Lactone” value [12] was 1.5% and the Atorvastatin [12] was 101.8%. The “At Lactone” value [13] was 35.2%, the Atorvastatin [13] was 76.4% and the “At Lactone” value [14] was 18.6%. For the same molecule, the Atorvastatin [14] was 84.2%, the “At Lactone” value [15] was 13.5% and the Atorvastatin [15] was 87.3%. The “At Lactone” value [16] was 19.8%, the Atorvastatin [16] was 90.7% and the “At Lactone” value [17] was 32.2%. For the same molecule, the Atorvastatin [17] was 80.9%, the “At Lactone” value [18] was 13.6% and the Atorvastatin [18] was 99.5%. The “At Lactone” value [19] was 25.2%, the Atorvastatin [19] was 92.0% and the “At Lactone” value [20] was 75.6%. The Atorvastatin [20] was 22.8%, the “At Lactone” value [21] was 4.6% and the Atorvastatin [21] was 85.3%.
